Results as given in PubChem BioAssay AID1918930 (Molecular Pharmacology Branch, DTP, NCI, 2023).

System: 233499-124-R-J3-PDC complex spheroid viability, % test/control
Experiment: Anticancer human tumor 233499-124-R-J3-PDC patient-derived colon adenocarcinoma cell line growth inhibition
Conditions: for IC50: curve of first compound; for viability, T/C: stronger effect = lower value
Summary of the method: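 Multicellular complex spheroids of tumor cells with human endothelial cells (HUVEC) and mesenchymal stem cells; the LSD1 inhibitor iadademstat was combined with standard-of-care or investigational agents. Top concentration at or near clinical Cmax, half-log dilutions; final DMSO ≤0.25%.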

[1] = second compound 0.1 µM, first compound 0.00316 µM
[2] = second compound 0.1 µM, first compound 0.01 µM
[3] = second compound 0.1 µM, first compound 0.0316 µM
[4] = second compound 0.1 µM, first compound 0.1 µM
[5] = second compound 0.316 µM, first compound 0.00316 µM
[6] = second compound 0.316 µM, first compound 0.01 µM
[7] = second compound 0.316 µM, first compound 0.0316 µM
[8] = second compound 0.316 µM, first compound 0.1 µM
[9] = second compound 1 µM, first compound 0.00316 µM
[10] = second compound 1 µM, first compound 0.01 µM
[11] = second compound 1 µM, first compound 0.0316 µM
[12] = second compound 1 µM, first compound 0.1 µM
[13] = second compound 3.16 µM, first compound 0.00316 µM
[14] = second compound 3.16 µM, first compound 0.01 µM
[15] = second compound 3.16 µM, first compound 0.0316 µM
[16] = second compound 3.16 µM, first compound 0.1 µM
[17] = second compound 10 µM, first compound 0.00316 µM
[18] = second compound 10 µM, first compound 0.01 µM
[19] = second compound 10 µM, first compound 0.0316 µM
[20] = second compound 10 µM, first compound 0.1 µM
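Note: spheroids exposed to agents for one week before readout.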

SMILES	IC50 (second compound 0.1 µM)	IC50 (second compound 0.316 µM)	IC50 (second compound 1 µM)	IC50 (second compound 3.16 µM)	IC50 (second compound 10 µM)	viability, T/C [1]	viability, T/C [2]	viability, T/C [3]	viability, T/C [4]	viability, T/C [5]	viability, T/C [6]	viability, T/C [7]	viability, T/C [8]	viability, T/C [9]	viability, T/C [10]	viability, T/C [11]	viability, T/C [12]	viability, T/C [13]	viability, T/C [14]	viability, T/C [15]	also measured
O=C(C=Cn1cnc(-c2cc(C(F)(F)F)cc(C(F)(F)F)c2)n1)NNc1cnccn1 + NC1CC1c1ccc(-c2cccc(O)c2)cc1	821 nM	669 nM	805 nM	920 nM	557 nM	102%	83.9%	95.7%	101%	91.8%	104%	97.2%	81.2%	67.3%	78.9%	90.9%	101%	84.1%	102%	83.5%	viability, T/C (second compound 0.1 µM, first compound 0.316 µM): 77.6%; viability, T/C (second compound 0.1 µM, first compound 1 µM): 44.3%; viability, T/C (second compound 0.316 µM, first compound 0.316 µM): 73.5%; viability, T/C (second compound 0.316 µM, first compound 1 µM): 38.2%; viability, T/C (second compound 1 µM, first compound 0.316 µM): 67.3%; viability, T/C (second compound 1 µM, first compound 1 µM): 46%; viability, T/C [16]: 94.3%; viability, T/C (second compound 3.16 µM, first compound 0.316 µM): 72.5%; viability, T/C (second compound 3.16 µM, first compound 1 µM): 48.2%; viability, T/C [17]: 73.5%; viability, T/C [18]: 83.1%; viability, T/C [19]: 78.2%; viability, T/C [20]: 81.9%; viability, T/C (second compound 10 µM, first compound 0.316 µM): 61.7%; viability, T/C (second compound 10 µM, first compound 1 µM): 38%
CC(C)CC(NC(=O)CNC(=O)c1cc(Cl)ccc1Cl)B1OC(=O)CC(CC(=O)O)(C(=O)O)O1 (stereo not given) + NC1CCC(NC2CC2c2ccccc2)CC1	5.11 nM	5.49 nM	4.87 nM	4.14 nM	3.33 nM	81.8%	4.56%	6.96%	5.21%	88.8%	7.64%	8.46%	0.08%	75.8%	7.01%	4.17%	2.6%	63.4%	6.41%	0.1%	viability, T/C (second compound 0.1 µM, first compound 0.000316 µM): 104%; viability, T/C (second compound 0.1 µM, first compound 0.001 µM): 90.2%; viability, T/C (second compound 0.316 µM, first compound 0.000316 µM): 109%; viability, T/C (second compound 0.316 µM, first compound 0.001 µM): 96.2%; viability, T/C (second compound 1 µM, first compound 0.000316 µM): 88.7%; viability, T/C (second compound 1 µM, first compound 0.001 µM): 78.1%; viability, T/C (second compound 3.16 µM, first compound 0.000316 µM): 77.2%; viability, T/C (second compound 3.16 µM, first compound 0.001 µM): 70.2%; viability, T/C [16]: 3.85%; viability, T/C (second compound 10 µM, first compound 0.000316 µM): 81.8%; viability, T/C (second compound 10 µM, first compound 0.001 µM): 73.7%; viability, T/C [17]: 52.8%; viability, T/C [18]: 6.15%; viability, T/C [19]: 0.14%; viability, T/C [20]: 0.16%
